From patent US20120295923A1, “Aminocyclohexanes and Aminotetrahydropyrans and Related Compounds As Gamma-Secretase Modulators” (PFIZER INC., priority 2010, published 2012)
Where a name gives a salt, the structure may show the parent alone. Read-outs that look alike come from different tables or passages of the source.

Tested on: γ-secretase; production of amyloid beta protein Aβ(1-42)
Test: Cell-Based γ-Secretase Assay with ELISA Readout
Conditions: human WT-APP overexpressing CHO cells
Method: The ability of compounds to modulate production of amyloid beta protein A6(1-42) was determined using human WT-APP overexpressing CHO cells. Cells were plated at 22,000 cells/100 μL well in 96 well tissue culture treated, clear plates (Falcon) in DMEM/F12 based medium and incubated for 24 hours at 37° C. Compounds for testing were diluted in 100% DMSO to achieve an eleven points, half log, dose response for IC50 determinations. Compounds were added in fresh medium to achieve 1% final DMSO. Appropriate vehicle and inhibitor controls were added to obtain maximum and minimum inhibition values for the assay before the plates were incubated for about 24 hours at 37° C.
Coating of ELISA assay plates was initiated by addition of 50 μL/well of an in-house Aβ(1-42) specific antibody at (4 μg/mL) in 0.1 M NaHCO3 (pH 9.0) into black 384-well Maxisorp® plates (Nunc) and incubated overnight at 4° C. The capture antibody was then aspirated from the ELISA assay plates and 100 μL/well of Blocking Buffer (Dulbecco's PBS, 1.5% BSA (Sigma A7030)) added. Ambient temperature incubation was allowed to proceed for a minimum of two hours before washing 2×100 μL with Wash Buffer (Dulbecco's PBS, 0.05% Tween 20). Assay Buffer (Dulbecco's PBS, 1.0% BSA (Sigma A7030), 0.05% Tween 20) 20 μL/well was then added.
After incubation overnight at 37° C., 5% CO2, 40 μL (in duplicate) of experimental conditioned media were transferred into wells of the blocked ELISA plates containing the capture antibody, followed by overnight incubation at 4° C.
After overnight incubation of the ELISA assay plates at 4° C., unbound Aβ peptides were removed thorough (4×100 μL) washes with Wash Buffer. Europium (Eu) labeled (custom labeled, Perkin Elmer) Aβ(1-16) 6e10 Monoclonal Antibody (Covance #SIG-39320 was added, (50 μL/well Eu-6e10 @ 1:5000, 20 uM EDTA) in Assay Buffer. Incubation at ambient temperature for a minimum of 2 hours was followed by (4×100 μL) washes with Wash Buffer, before 50 μL/well of Delfia Enhancement Solution (PerkinElmer) was added. Following a one hour ambient temperature incubation, the plates were read on an EnVision plate reader (PerkinElmer) using standard DELFIA TRF settings. Data analysis including inhibitory IC50 determination was performed using nonlinear regression fit analysis (in-house software) and the appropriate plate mean values for the maximum and minimum inhibition controls.

[1] = geometric mean of 2-4 determinations unless otherwise indicated (footnote 10: 6-8; footnote 14: single determination), read-out: Aβ 42B IC50
[2] = geometric mean of 2 determinations unless otherwise indicated (footnote 2: 6-14 determinations), read-out: Aβ 42B IC50
[3] = footnote 8: single determination, read-out: Aβ 42B IC50 (nM) (Geometric Mean of 2-8 Determinations)

Row | IC50 [1] [nM] | SMILES | further results
1 | 349 | CC(C)(C)CN(CC1CCCC1)[C@@H]1CC[C@@H](CC(=O)O)C[C@H]1c1ccc(C(F)(F)F)cc1 [Example 36, {(1R,3S,4R)-4-[(cyclopentylmethyl)(2,2-dimethylpropyl)amino]-3-[4-(trifluoromethyl)phenyl]cyclohexyl}acetic acid, ammonium salt] | –
2 | 3020 | CC(C)CCN(Cc1nccs1)[C@@H]1CC[C@@H](CC(=O)O)C[C@H]1c1ccc(C(F)(F)F)cc1 [Example 33, {(1R,3S,4R)-4-[(3-methylbutyl)(1,3-thiazol-2-ylmethyl)amino]-3-[4-(trifluoromethyl)phenyl]cyclohexyl}acetic acid, trifluoroacetate acid] | –
3 | 463 | O=C(O)C[C@@H]1CC[C@@H](N(CC2CCCC2)CC2CCC2)[C@H](c2ccc(C(F)(F)F)cc2)C1 [Example 50, {(1R,3S,4R)-4-[(cyclobutylmethyl) (cyclopentyl)methyl)amino]-3-[4-(trifluoromethyl)phenyl] cyclohexyl}acetic acid, ammonium salt] | –
4 | – | CC(C)CCN(CCC(C)C)[C@@H]1CC[C@@H]([C@H](C)C(=O)O)C[C@H]1c1ccc(C(F)(F)F)cc1 (single isomer, unassigned) [Example 8] | IC50 [2]: 1580 nM
5 | – | CC(C)CCN(CCC(F)(F)F)[C@@H]1CC[C@@H](CC(=O)O)C[C@H]1c1ccc(C(F)(F)F)cc1 (racemic) [Example 9, {(1R,3S,4R)/ (1S,3R,4S)-4-[(3-methylbutyl) (3,3,3-trifluoropropyl)amino]-3-[4-(trifluoromethyl)phenyl]cyclohexyl} acetic acid, hydrochloride salt] | IC50 [3]: 618 nM
6 | 509 | O=C(O)C[C@@H]1CC[C@@H](N(Cc2ccc3nonc3c2)CC2(F)CCCCC2)[C@H](c2ccc(C(F)(F)F)cc2)C1 [Example 65, {(1R,3S,4R)-4-{(2,1,3-benzoxadiazol-5-ylmethyl)[(1-fluorocyclohexyl)methyl]amino}-3-[4-(trifluoromethyl)phenyl]cyclohexyl}acetic acid, trifluoroacetate salt] | –
7 | 892 | O=C(O)C[C@@H]1CC[C@@H](N(CC2CCCC2)CC2CCCC2)[C@H](c2ccc(Cl)cc2)O1 [Example 55, [(2S,5R,6S)-5-[bis(cyclopentylmethyl)amino]-6-(4-chlorophenyl)tetrahydro-2H-pyran-2-yl]acetic acid] | –
8 | 1050 | O=C(O)C[C@@H]1CC[C@@H](N(CC2CCCC2)CC2CCCC2)[C@H](c2ccc(Cl)c(F)c2)O1 [Example 54, [(2S,5R,6S)-5-[bis(cyclopentylmethyl)amino]-6-(4-chloro-3-fluorophenyl)tetrahydro-2H-pyran-2-yl]acetic acid, ammonium acid] | –
9 | – | O=C(O)C[C@@H]1CC[C@@H](N(Cc2ccc(F)cc2)CC2CCCC2)[C@H](c2ccc(C(F)(F)F)cc2)C1 [Example 26, {(1R,3S,4R)-4-[(cyclopentyl-methyl)(4-fluorobenzyl)amino]-3-[4-(trifluoromethyl)phenyl]cyclohexyl} acetic acid] | IC50 [3]: 190 nM
10 | – | O=C(O)C[C@@H]1CC[C@@H](N(Cc2ccccc2)CC2CCCC2)[C@H](c2ccc(C(F)(F)F)cc2)C1 [Example 2, {(1R,3S,4R)-4-[benzyl(cyclopentylmethyl)amino]-3-[4-(trifluoromethyl)phenyl]cyclohexyl}acetic acid] | IC50 [2]: 139 nM
11 | – | CC(C)CN(CC1CCCC1)[C@@H]1CC[C@@H](CC(=O)O)O[C@H]1c1ccc(C(F)(F)F)cc1 [Example 4, {(2S,5R,6S)-5-[(cyclopentylmethyl)(isobutyl)amino]-6-[4-(trifluoromethyl)phenyl]tetrahydro-2H-pyran-2-yl}acetic acid] | IC50 [2]: 608 nM
12 | 411 | Cc1cc(CN(CC(C)C)[C@@H]2CC[C@@H](CC(=O)O)C[C@H]2c2ccc(C(F)(F)F)cc2)oc1C [Example 67, {(1R,3S,4R)-4-{[(4,5-dimethyl-2-furyl)methyl](isobutyl)amino}-3-[4-(trifluoromethyl)phenyl]cyclohexyl}acetic acid, trifluoroacetate salt] | –
13 | 598 | CC(C)CCN(CCC1CCCCC1)[C@@H]1CC[C@@H](CC(=O)O)C[C@H]1c1ccc(C(F)(F)F)cc1 [Example 32, {(1R,3S,4R)-4-[(2-cyclohexylethyl)(3-methylbutyl)amino]-3-[4-(trifluoromethyl)phenyl]cyclohexyl}acetic acid, trifluoroacetate salt] | –
14 | – | O=C(O)C[C@@H]1CC[C@@H](N(CC2CCCC2)CC2CCCC2)[C@H](c2cccc(C(F)(F)F)c2)O1 [Example 20, {(2S,5R,6S)-5-[bis(cyclopentyl-methyl)amino]-6-[3-(trifluoromethyl)phenyl]tetrahydro-2H-pyran-2-yl} acetic acid] | IC50 [3]: 959 nM
15 | – | CC(C)CCN(CCC(C)C)[C@@H]1CC[C@@H]([C@@H](C)C(=O)O)C[C@H]1c1ccc(C(F)(F)F)cc1 (single isomer, unassigned) [Example 7] | IC50 [2]: 1750 nM
16 | 544 | CC(C)C[C@H](C)N(CC1CCCC1)[C@@H]1CC[C@@H](CC(=O)O)C[C@H]1c1ccc(C(F)(F)F)cc1 (single isomer, unassigned) [Example 56] | –
17 | 109 | O=C(O)C[C@@H]1CC[C@@H](N(CC2CCCC2)CC2(F)CCCCC2)[C@H](c2ccc(C(F)(F)F)cc2)C1 [Example 39, {(1R,3S,4R)-4-{(cyclopentylmethyl)[(1-fluorocyclohexyl)methyl]amino}-3-[4-(trifluoromethyl)phenyl]cyclohexyl}acetic acid, ammonium salt] | –
18 | – | CC(C)CCN(C1CCC(F)(F)CC1)[C@@H]1CC[C@@H](CC(=O)O)C[C@H]1c1ccc(C(F)(F)F)cc1 [Example 16, {(1R,3S,4R)-4-[(4,4-difluoro-cyclohexyl)(3-methylbutyl)amino]-3-[4-(trifluoromethyl)phenyl]cyclohexyl} acetic acid] | IC50 [3]: 496 nM
19 | 349 | CCCc1nscc1CN(CC(C)C)[C@@H]1CC[C@@H](CC(=O)O)C[C@H]1c1ccc(C(F)(F)F)cc1 [Example 59, {(1R,3S,4R)-4-{isobutyl[(3-propylisothiazol-4-yl)methyl]amino}-3-[4-(trifluoromethyl)phenyl]cyclohexyl}acetic acid, trifluoroacetate salt] | –
20 | 154 | CC(C)CN(CC1=CCCCC1)[C@@H]1CC[C@@H](CC(=O)O)C[C@H]1c1ccc(C(F)(F)F)cc1 [Example 60, {(1R,3S,4R)-4-[(cyclohex-1-en-1-ylmethyl)(isobutyl)amino]-3-[4-(trifluoromethyl)phenyl]cyclohexyl}acetic acid, trifluoroacetate salt] | –
21 | – | O=C(O)C[C@H]1CC[C@@H](N(CC2CCCC2)CC2CCCC2)[C@H](c2ccc(C(F)(F)F)cc2)O1 [Example 22, {(2R,5R,6S)-5-[bis(cyclopentyl-methyl)amino]-6-[4-(trifluoromethyl)phenyl]tetrahydro-2H-pyran-2-yl} acetic acid] | IC50 [3]: 6390 nM
22 | 382 | CC(CN(CC1CCCC1)[C@@H]1CC[C@@H](CC(=O)O)C[C@H]1c1ccc(Cl)cc1)C(F)(F)F (stereo partly drawn) [Example 51, {(1R,3S,4R)-3-(4-chlorophenyl)-4-[(cyclopentylmethyl)(3,3,3-trifluoro-2-methylpropyl)amino]cyclohexyl}acetic acid, trifluoroacetate salt] | –
23 | 5220 | O=C(O)C[C@@H]1CC[C@@H](N(Cc2cncnc2)CC2CCCC2)[C@H](c2ccc(C(F)(F)F)cc2)C1 [Example 38, {(1R,3S,4R)-4-[(cyclopentylmethyl)(pyrimidin-5-ylmethyl)amino]-3-[4-(trifluoromethyl)phenyl]cyclohexyl}acetic acid, trifluoroacetate salt] | –
24 | 318 | CC(C)CN(CC1CCCC1)[C@@H]1CC[C@@H](CC(=O)O)C[C@H]1c1ccc(C(F)(F)F)cc1 [Example 44, {(1R,3S,4R)-4-[(cyclopentylmethyl)(isobutyl)amino]-3-[4-(trifluoromethyl)phenyl]cyclohexyl}acetic acid, trifluoroacetic salt] | –
25 | – | O=C(O)C[C@@H]1CC[C@@H](N(CC2CCCC2)CC2CCCC2)[C@H](c2ccc(C(F)(F)F)nc2)O1 [Example 19, {(2S,5R,6S)-5-[bis(cyclopentyl-methyl)amino]-6-[6-(trifluoromethyl)pyridin-3-yl]tetrahydro-2H-pyran-2-yl}acetic acid] | IC50 [3]: 837 nM
